Laboratory results taken from patent US7879876B2, “Sulfonamide derivatives and use thereof for the modulation of metalloproteinases” (Merck Serono SA, priority 2005, dated 2011).
pIC50: −log10 of the molar value.

Tests used:
Type in all cases: biochemical
[1] = biological target: 92 kDa gelatinase (MMP-9) (Homo sapiens, UniProt P14780); assay: MMP-9 enzyme inhibition assay (coumarin-labeled peptide substrate); conditions: for inhibition at 5 µM: read-out: percentage inhibition MMP9; for pIC50: read-out: IC50 MMP9
92 kDa gelatinase (MMP-9), sequence (P14780 107-707 limits assumed): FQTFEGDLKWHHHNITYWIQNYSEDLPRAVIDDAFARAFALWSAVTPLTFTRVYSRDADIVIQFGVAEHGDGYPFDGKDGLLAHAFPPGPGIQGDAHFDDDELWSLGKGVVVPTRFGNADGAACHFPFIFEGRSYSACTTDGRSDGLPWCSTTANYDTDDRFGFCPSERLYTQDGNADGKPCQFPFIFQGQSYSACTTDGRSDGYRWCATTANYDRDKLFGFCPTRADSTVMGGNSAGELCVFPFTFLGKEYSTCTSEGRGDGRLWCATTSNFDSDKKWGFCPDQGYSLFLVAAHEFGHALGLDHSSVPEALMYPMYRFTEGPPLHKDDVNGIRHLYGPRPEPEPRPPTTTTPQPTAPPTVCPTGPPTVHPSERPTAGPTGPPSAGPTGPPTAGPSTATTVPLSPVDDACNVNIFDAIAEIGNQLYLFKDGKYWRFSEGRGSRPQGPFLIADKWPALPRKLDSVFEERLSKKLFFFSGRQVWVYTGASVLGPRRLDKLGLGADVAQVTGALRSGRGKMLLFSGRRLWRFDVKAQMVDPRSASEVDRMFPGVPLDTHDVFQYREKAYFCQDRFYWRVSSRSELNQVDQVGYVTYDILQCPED
In short: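 Recombinant human MMP-9 (APMA-activated if needed) was assayed in 100 mM Tris-HCl pH 7.6, 100 mM NaCl, 10 mM CaCl2, 0.05% Brij 35, with McaPLGLDpaAR substrate at 37° C. for 2 h. Fluorescence was read at ex 320/em 405 nm over ten 3-fold compound doses (100 μM–5.1 nM) in duplicate. IC50 came from a four-parameter fit.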

metalloelastase (MMP-12) = metalloelastase (MMP-12) (Homo sapiens, UniProt P39900); assay: MMP-12 enzyme inhibition assay (coumarin-labelled peptide substrate); conditions: read-out: IC50 MMP12
metalloelastase (MMP-12), sequence (P39900 106-470): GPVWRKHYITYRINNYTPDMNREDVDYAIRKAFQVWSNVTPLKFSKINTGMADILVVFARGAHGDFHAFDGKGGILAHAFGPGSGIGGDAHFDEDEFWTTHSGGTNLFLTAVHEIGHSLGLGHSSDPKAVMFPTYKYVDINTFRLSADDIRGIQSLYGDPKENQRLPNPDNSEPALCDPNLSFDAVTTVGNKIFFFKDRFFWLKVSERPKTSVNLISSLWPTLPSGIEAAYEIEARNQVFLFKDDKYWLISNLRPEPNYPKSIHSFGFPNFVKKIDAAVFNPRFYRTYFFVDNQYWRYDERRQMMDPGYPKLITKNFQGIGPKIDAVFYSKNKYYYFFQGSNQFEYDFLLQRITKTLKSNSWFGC
In short: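 Recombinant human MMP-12 assayed per the MMP-9 protocol: Tris-HCl pH 7.6 buffer with NaCl, CaCl2, Brij 35; McaPLGLDpaAR substrate, compounds 100 μM–5.1 nM in duplicate, 2 h at 37° C. Fluorescence read at 405 nm (320 nm excitation) without stopping; IC50 from four-parameter fit.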

human ADAM17 (TACE) = human ADAM17 (TACE) (Homo sapiens, UniProt P78536); assay: TACE enzyme inhibition assay
human ADAM17 (TACE), sequence (P78536 215-824): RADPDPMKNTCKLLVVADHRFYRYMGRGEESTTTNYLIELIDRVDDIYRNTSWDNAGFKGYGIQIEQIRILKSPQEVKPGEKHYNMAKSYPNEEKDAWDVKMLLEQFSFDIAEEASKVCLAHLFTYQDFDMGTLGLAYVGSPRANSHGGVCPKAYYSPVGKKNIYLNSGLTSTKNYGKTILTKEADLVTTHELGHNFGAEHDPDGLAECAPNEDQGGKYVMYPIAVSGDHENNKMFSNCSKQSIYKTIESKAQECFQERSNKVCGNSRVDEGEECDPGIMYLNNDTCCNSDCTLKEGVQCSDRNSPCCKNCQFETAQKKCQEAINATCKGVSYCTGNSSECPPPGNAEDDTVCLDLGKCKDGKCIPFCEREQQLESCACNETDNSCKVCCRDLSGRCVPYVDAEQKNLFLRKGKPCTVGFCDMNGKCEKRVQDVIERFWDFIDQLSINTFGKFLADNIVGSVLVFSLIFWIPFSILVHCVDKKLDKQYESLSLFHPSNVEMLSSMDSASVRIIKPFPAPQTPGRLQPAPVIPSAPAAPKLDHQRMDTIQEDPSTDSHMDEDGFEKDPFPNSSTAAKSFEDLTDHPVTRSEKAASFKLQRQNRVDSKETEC
In short: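 Recombinant human ADAM17 was run in 20 mM HEPES pH 7.5 with 0.05% Brij 35, using Mca/Dnp-TNF-alpha(−5 to +6) amide substrate (5 μM solution), for 1.5 h at room temperature. Fluorescence (ex 355/em 405 nm) was read unstopped over ten concentrations (100 μM–0.01 nM). IC50 came from a four-parameter fit, rounded to one significant figure.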

Structure (SMILES)	inhibition at 5 µM [1]	pIC50 (metalloelastase (MMP-12))	pIC50 (human ADAM17 (TACE))	pIC50 [1]
O=CN(O)C(CS(=O)(=O)N1CCc2cc(Cl)c(Cl)cc2C1)C1CCCC1 (stereo not drawn) [Example 77, N-{1-cyclopentyl-2-[(6,7-dichloro-3,4-dihydroisoquinolin-2(1H)-yl)sulfonyl]ethyl}-N-hydroxyformamide]	35%	8.29	6.64	
O=CN(O)[C@@H](CS(=O)(=O)N1CCc2ccc(Cl)cc2C1)[C@H]1CCCO1 [Example 22, N-{(1R)-2-[(7-chloro-3,4-dihydroisoquinolin-2(1H)-yl)sulfonyl]-1-[(2R)-tetrahydrofuran-2-yl]ethyl}-N-hydroxyformamide]		6.68	6.41	< 5.30
CC(C)C(CS(=O)(=O)N1CCc2cc(Cl)c(Cl)cc2C1)N(O)C=O (stereo not drawn) [Example 39, N-(1-{[(6,7-dichloro-3,4-dihydroisoquinolin-2(1H)-yl)-sulfonyl]methyl}-2-methylpropyl)-N-hydroxyformamide]	47%	8.39	6.77	
O=CN(O)C(COCc1ccccc1)CS(=O)(=O)N1CCc2ccc(Cl)cc2C1 (stereo not drawn) [Example 58, N-(2-(benzyloxy)-1-{[(7-chloro-3,4-dihydroisoquinolin-2(1H)-yl)sulfonyl]methyl}ethyl)-N-hydroxyformamide]	41%	8.35	7.25	
O=CN(O)C(CS(=O)(=O)N1CCc2ccccc2C1)c1cncnc1 (stereo not drawn) [Example 9, N-[2-(3,4-dihydroisoquinolin-2(1H)-ylsulfonyl)-1-pyrimidin-5-ylethyl]-N-hydroxyformamide]		7.31	6.89	< 5.30
O=CN(O)C(CS(=O)(=O)N1CCc2ccccc2C1)c1cccnc1 (stereo not drawn) [Example 10, N-[2-(3,4-dihydroisoquinolin-2(1H)-ylsulfonyl)-1-pyridin-3-ylethyl]-N-hydroxyformamide]		7.89	7.17	< 5.30
O=CN(O)C(CS(=O)(=O)N1CCc2ccc(Cl)cc2C1)C1CC1 (stereo not drawn) [Example 73, N-{2-[(7-chloro-3,4-dihydroisoquinolin-2(1H)-yl)sulfonyl]-1-cyclopropylethyl}-N-hydroxyformamide]	5%	7.35	7.06	
CC1(C)OC[C@H](C(CS(=O)(=O)N2CCc3ccccc3C2)N(O)C=O)O1 (stereo partly drawn) [Example 2, N-{2-(3,4-dihydroisoquinolin-2(1H)-ylsulfonyl)-1-[(4S)-2,2-dimethyl-1,3-dioxolan-4-yl]ethyl}-N-hydroxyformamide]		7.85	7.48	< 5.30
CC(C)(C)c1ccc2c(c1)CN(S(=O)(=O)CC(COCc1ccccc1)N(O)C=O)CC2 (stereo not drawn) [Example 57, N-(2-(benzyloxy)-1-{[(7-tert-butyl-3,4-dihydroisoquinolin-2(1H)-yl)sulfonyl]methyl}ethyl)-N-hydroxyformamide]	0%	6.93	< 5.30	
O=CN(O)C(CS(=O)(=O)N1CCc2ccc(-c3cccc(O)c3)cc2C1)C1CCCC1 (stereo not drawn) [Example 70, N-(1-cyclopentyl-2-{[7-(3-hydroxyphenyl)-3,4-dihydroisoquinolin-2(1H)-yl]sulfonyl}ethyl)-N-hydroxyformamide]	3%	7.39	< 5.30	
CCC(CC)C(CS(=O)(=O)N1CCc2ccc(OC)cc2C1)N(O)C=O (stereo not drawn) [Example 38, N-(2-ethyl-1-{[(7-methoxy-3,4-dihydroisoquinolin-2(1H)-yl)sulfonyl]methyl}butyl)-N-hydroxyformamide]	50%	8.14	6.56	
O=CN(O)C(CS(=O)(=O)N1CCc2ccc(F)cc2C1)C1CCN(Cc2ccccc2)CC1 (stereo not drawn) [Example 53, N-{1-(1-benzylpiperidin-4-yl)-2-[(7-fluoro-3,4-dihydro-isoquinolin-2(1H)-yl)sulfonyl]ethyl}-N-hydroxyformamide]	5%	6.97	6.61	
O=CN(O)C(CS(=O)(=O)N1CCc2cc(C(F)(F)F)ccc2C1)C1CCCC1 (stereo not drawn) [Example 25, N-(1-cyclopentyl-2-{[6-(trifluoromethyl)-3,4-dihydro-isoquinolin-2(1H)-yl]sulfonyl}ethyl)-N-hydroxyformamide]		8.22	5.92	< 5.30
